In experiment [1] the target is T1, Monoamine Oxidase A (Rattus norvegicus, UniProt P21396).
T1 construct: serves as the tissue source for mitochondrial monoamine oxidase; from tissue; host or cells: male Wistar rat whole brain minus cerebellum, 18,000 g pellet (P2)
T1 sequence (P21396 1-526): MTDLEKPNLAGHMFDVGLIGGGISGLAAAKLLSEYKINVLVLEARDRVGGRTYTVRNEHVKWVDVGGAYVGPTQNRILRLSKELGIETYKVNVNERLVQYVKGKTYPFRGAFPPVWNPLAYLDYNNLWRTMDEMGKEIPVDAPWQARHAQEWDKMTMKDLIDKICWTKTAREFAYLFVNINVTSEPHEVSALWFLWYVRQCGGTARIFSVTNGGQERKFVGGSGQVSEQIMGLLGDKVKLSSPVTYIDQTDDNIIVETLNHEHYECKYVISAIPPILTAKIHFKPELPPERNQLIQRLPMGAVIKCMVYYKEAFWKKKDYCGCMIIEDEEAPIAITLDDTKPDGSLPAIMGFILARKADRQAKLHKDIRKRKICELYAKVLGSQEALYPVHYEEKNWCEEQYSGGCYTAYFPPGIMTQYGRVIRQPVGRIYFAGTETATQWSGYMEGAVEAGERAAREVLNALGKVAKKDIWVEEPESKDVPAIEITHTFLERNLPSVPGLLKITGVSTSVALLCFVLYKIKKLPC
Description: in vitro inhibition of monoamine oxidase assay (monoamine oxidase A). The class given is biochemical, rat (male Wistar, whole brain minus cerebellum). The conditions noted are these: rat brain mitochondria, [3H]-5-hydroxytryptamine 200 μM, pH 7.4, 37° C., 30 min; log-probit. An excerpt:
(§1) In this assay, a modification of an assay described by M. V. Kindt, et al., Europ.
(§2) Male Wistar rats weighing 150-250 grams were sacrificed and the brains rapidly removed.

Experiment [2] has as its target T2, Monoamine Oxidase B (Rattus norvegicus, UniProt P19643).
T2 construct: serves as the tissue source for mitochondrial monoamine oxidase; from tissue; host or cells: male Wistar rat whole brain minus cerebellum, 18,000 g pellet (P2)
T2 sequence (P19643 1-520): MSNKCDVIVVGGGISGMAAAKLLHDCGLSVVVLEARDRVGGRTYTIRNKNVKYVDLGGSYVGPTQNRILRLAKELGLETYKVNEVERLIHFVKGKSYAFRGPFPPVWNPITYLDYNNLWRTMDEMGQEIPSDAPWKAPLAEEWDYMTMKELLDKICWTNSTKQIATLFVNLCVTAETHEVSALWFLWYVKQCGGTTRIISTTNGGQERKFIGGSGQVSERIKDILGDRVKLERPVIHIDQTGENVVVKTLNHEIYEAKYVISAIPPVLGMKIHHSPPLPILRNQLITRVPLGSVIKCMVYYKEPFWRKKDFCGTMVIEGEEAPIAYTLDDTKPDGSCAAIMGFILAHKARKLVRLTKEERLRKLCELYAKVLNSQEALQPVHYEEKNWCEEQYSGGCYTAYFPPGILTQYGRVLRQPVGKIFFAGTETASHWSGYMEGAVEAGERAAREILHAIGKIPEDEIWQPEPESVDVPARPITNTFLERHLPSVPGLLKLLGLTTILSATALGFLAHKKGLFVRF
Description: in vitro inhibition of monoamine oxidase assay (monoamine oxidase B). Format: biochemical, rat (male Wistar, whole brain minus cerebellum). As to conditions: rat brain mitochondria, [14C]-phenethylamine 200 μM, pH 7.4, 37° C., 30 min; log-probit.
Text: as §1, §2

Experiment [3] addresses T3, Acetylcholinesterase (Rattus norvegicus, UniProt P37136).
T3 construct: corpora striata dissected free, weighted and homogenized in 19 volumes; from tissue; host or cells: male Wistar rat corpora striata, homogenate
The experiment is described as follows: in vitro inhibition of acetylcholinesterase assay. The class given is biochemical, rat (male Wistar, corpora striata). As to the method: 1. 0.05M Phosphate Buffer (pH 7.2)
A solution of monobasic sodium phosphate monohydrate (6.85 g) in distilled water (100 mL) is added to a solution of dibasic sodium phosphate heptahydrate (13.4 g) and distilled water (100 mL) until a pH of 7.2 was attained. The solution was diluted 1 to 10 with distilled water.
3. 5,5-Dithiobisnitrobenzoic acid in Buffer
The 0.05M Phosphate Buffer (pH 7.2) was added to 5.5-dithiobisnitrobenzoic acid to a total volume of 100 mL. i.e., a quantity sufficient (gs) to 100 mL.
4. Stock Solution of Drug
A 2 millimolar stock solution of the test drug is prepared in a quantity sufficient of either acetic acid or dimethyl sulfoxide to volume with 5,5-Dithiobisnitrobenzene Acid in Buffer. Stock Solution of Drug is serially diluted (1:10) so that the final cuvette concentration is 10^-4 molar.
Male Wistar rats are decapitated, brains rapidly removed, corpora striata dissected free, weighted and homogenized in 19 volumes (approximately 7 mg protein/mL) of 0.05M phosphate Buffer (pH 7.2) using a Potter-Elvehjem homogenizer. A 25 μl aliquot of this suspension is added to 1 mL of the vehicle or various concentrations of the test drug and preincubated for 10 minutes at 37° C. Enzyme activity is measured with a Beckman DU-50 spectrophotometer with the following software and instrument settings:
6. Cuvettes--2 mL cuvettes using auto 6-sampler;
7. Blank--1 for each substrate concentration;
8. Interval time--15 seconds (15 or 30 seconds for kinetics);
9. Total time--5 minutes (5 to 10 minutes for kinetics);
13. Results--yes (gives slope); and
Reagents are added to the blank and sample cuvettes as follows: […]
Blank 0.8 mL 5.5-Dithiobisnitrobenzoic Acid
0.8 mL Substrate in Buffer
2. Control 0.8 mL 5.5-Dithiobisnitrobenzoic Acid/Enzyme
3. Drug 0.8 mL 5.5-Dithiobisnitrobenzoic Acid/Drug/Enzyme
Blank values are determined for each run to control for non-enzymatic hydrolysis of substrate and these values are automatically subtracted by the Kindata program available on kinetics soft-pac module. This program also calculates the rate of absorbance change for each cuvette.
Substrate concentration is 10 millimolar diluted 1:2 in assay yielding final concentration of 5 millimolar. 5,5-Dithiobisnitrobenzoic acid concentration is 0.5 millimolar yielding 0.25 millimolar final concentration. [formula]
IC50 values are calculated from log-probit analysis

pIC50: −log10 of the molar value. Counter-ions that a name gives are not always drawn. Like-named read-outs stand apart in the source and are kept apart here.

A word on the pIC50: it is the negative decadic logarithm of the IC50, by convention in mol/L.

T3 sequence (P37136 32-614): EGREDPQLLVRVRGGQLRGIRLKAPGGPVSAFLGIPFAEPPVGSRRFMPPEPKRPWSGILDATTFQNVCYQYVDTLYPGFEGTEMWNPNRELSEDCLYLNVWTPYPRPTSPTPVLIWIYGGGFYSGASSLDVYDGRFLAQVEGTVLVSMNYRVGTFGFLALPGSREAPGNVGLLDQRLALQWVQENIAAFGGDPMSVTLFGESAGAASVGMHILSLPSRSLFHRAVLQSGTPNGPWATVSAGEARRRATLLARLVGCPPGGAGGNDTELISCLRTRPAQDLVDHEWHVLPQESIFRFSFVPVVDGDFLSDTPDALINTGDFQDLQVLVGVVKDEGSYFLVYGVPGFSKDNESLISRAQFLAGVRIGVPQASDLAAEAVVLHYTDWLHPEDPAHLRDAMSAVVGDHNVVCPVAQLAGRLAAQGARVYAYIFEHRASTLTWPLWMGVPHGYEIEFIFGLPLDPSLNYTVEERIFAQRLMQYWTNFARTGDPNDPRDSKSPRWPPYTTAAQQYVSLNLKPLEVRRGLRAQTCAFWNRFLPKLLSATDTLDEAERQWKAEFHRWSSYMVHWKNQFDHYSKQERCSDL

With `c1ccc(CCn2ccc(=Nc3noc4ccccc34)cc2)cc1` [3-[1-(2-Phenylethyl)-N-4(1H)-pyridiniminyl]-1,2-benzisoxazole hydrobromide], the pIC50 is 5.52 in experiment [1] and 4.80 in experiment [2].

For the molecule `c1ccc(CCCn2ccc(=Nc3noc4ccccc34)cc2)cc1` [3-[1-(3-Phenylpropyl)-N-4(1H)-pyridiniminyl]-1,2-benzisoxazole hydrobromide], the negative-log IC50 (pIC50) in experiment [3] was 6.19.

With `Fc1ccc(Cn2ccc(=Nc3noc4ccccc34)cc2)cc1` [3-[1-(4-Fluorophenyl)methyl-N-4(1H)-pyridiniminyl]-1,2-benzisoxazole hydrobromide], the pIC50 in experiment [3] (rat corpora striata homogenate, pH 7.2, acetylthiocholine 5 mM final, 10 min preincubation at 37° C., log-probit, read-out: Inhibition of Acetylcholinesterase Activity IC50) was 6.36.

As for `c1ccc(Cn2ccc(=Nc3noc4ccccc34)cc2)cc1` [3-[1-Phenylmethyl-N-4(1H)-pyridiniminyl]-1,2-benzisoxazole hydrobromide], the pIC50 in experiment [3] is 6.55; in experiment [1], 5.05; in experiment [2] it was 4.47.

On to `CCCn1ccc(=Nc2noc3cc(Cl)ccc23)cc1` [6-Chloro-3-]1-propyl-N-4(1H)pyridiniminyl]-1,2-benzisoxazole hydrochloride], for which the pIC50 is 5.78 in experiment [1] and 4.57 in experiment [2].

On to `COc1ccc2c(N=c3ccn(Cc4ccccc4)cc3)noc2c1` [6-Methoxy-3-[1-phenylmethyl-N-4(1H)-pyridiniminyl]-1,2-benzisoxazole hydrobromide], for which the pIC50 in experiment [3] is 7.05; in experiment [1], 5.52; in experiment [2], 4.60.

The values above are taken from patent US5948798A, “Pyridiniminyl-1,2-benzisoxazoles and -benzisothiazoles” (Hoechst Marion Roussel, Inc., priority 1997, dated 1999).
